In patent US10208064B2, “Inhibitors of the renal outer medullary potassium channel” (MERCK SHARP & DOHME CORP., priority 2014, dated 2019):

Biological target: ROMK (Kir1.1) channel (Homo sapiens (Human), UniProt P48048)
Assay: Thallium Flux Assay
Type: cell-based
Experimental: The following Thallium Flux Assay was performed on each of the final product compounds in the Examples.
A Thallium Flux Assay was performed on the compounds of the Examples. This assay has been described previously; see, e.g., PCT Published Application WO 2013/062900.

Chain of ROMK (Kir1.1) channel (P48048 whole entry): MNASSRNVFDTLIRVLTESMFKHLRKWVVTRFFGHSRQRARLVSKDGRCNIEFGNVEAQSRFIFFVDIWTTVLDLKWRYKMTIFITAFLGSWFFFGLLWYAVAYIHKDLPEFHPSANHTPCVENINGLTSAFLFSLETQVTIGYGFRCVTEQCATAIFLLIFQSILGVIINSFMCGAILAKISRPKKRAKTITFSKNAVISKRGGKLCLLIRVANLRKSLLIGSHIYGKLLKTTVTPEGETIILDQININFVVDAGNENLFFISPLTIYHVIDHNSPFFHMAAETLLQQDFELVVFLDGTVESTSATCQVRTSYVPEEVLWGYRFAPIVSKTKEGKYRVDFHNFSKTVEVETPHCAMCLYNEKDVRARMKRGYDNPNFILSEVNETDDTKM

CC1=C(N2CCC3(CCN(C[C@@H](O)c4ccc5c(c4)[C@@H](C)n4nnnc4-5)CC3)C2=O)COC1=O [Example 27D, 8-((S)-2-hydroxy-2-((R)-5-methyl-5H-tetrazolo[5,1-a]isoindol-7-yl)ethyl)-2-(4-methyl-5-oxo-2,5-dihydrofuran-3-yl)-2,8-diazaspiro[4.5]decan-1-one]
IC50: 29 nM

CC1=C(N2CCC3(CCN(C[C@@H](O)c4cc5c(cc4C4CC4)-c4nnnn4C5)CC3)C2=O)COC1=O [Example 26, (S)-8-(2-(8-cyclopropyl-5H-tetrazolo[5,1-a]isoindol-7-yl)-2-hydroxyethyl)-2-(4-methyl-5-oxo-2,5-dihydrofuran-3-yl)-2,8-diazaspiro[4.5]decan-1-one]
IC50: 82 nM

CC1=C(N2CCC3(CCN(C[C@@H](O)c4ccc5c(c4C)CCc4nnnn4-5)CC3)C2=O)COC1=O [Example 11, (S)-8-(2-hydroxy-2-(6-methyl-4,5-dihydrotetrazolo[1,5-a]quinolin-7-yl)ethyl)-2-(4-methyl-5-oxo-2,5-dihydrofuran-3-yl)-2,8-diazaspiro[4.5]decan-1-one]
IC50: 47 nM

CC1=C(N2CCC3(CCN([C@H](CO)c4ccc5c(ccc6nnnn65)c4)CC3)C2=O)COC1=O [Example 28A, (S)-8-(2-hydroxy-1-(tetrazolo[1,5-a]quinolin-7-yl)ethyl)-2-(4-methyl-5-oxo-2,5-dihydrofuran-3-yl)-2,8-diazaspiro[4.5]decan-1-one]
IC50: 44 nM
